Consider 25 molecules from patent US11584747B2, “Substituted pyridopyrimidinonyl compounds useful as T cell activators” (BRISTOL-MYERS SQUIBB COMPANY, priority 2019, dated 2023).

The target of experiment [1] is T1, human DGKα (Homo sapiens (Human), UniProt P23743). Kind of experiment: DGKα LIPGLO assay (extruded liposome substrate, ADP-Glo luminescence). The class given is biochemical. Conditions: liposome assay; read-out: DGK alpha LIPGLO IC50.
Experiment [2] addresses human DGKζ (Homo sapiens (Human), UniProt Q13574). Nature of the experiment: DGKζ LIPGLO assay (extruded liposome substrate, ADP-Glo luminescence). In kind it is biochemical. To be noted: liposome assay; read-out: DGK zeta LIPGLO IC50.
Experiment [3] deals with T1, human DGKα. Nature of the experiment: DGKα ADPGLO assay (detergent/lipid micelle substrate). In kind it is biochemical. To be noted: truncated DGK alpha; read-out: DGK alpha ADPGLO (Truncated) IC50. On the procedure: DGK Alpha ADPGLO (Truncated) IC50 (uM)
The detergent/lipid micelle was prepared by combining 15 g phosphatidylserine (Avanti 840035P) and 1 g diacylglycerol (8008110) and dissolving into 150 mL chloroform in a 2 L round bottom flask. Chloroform was removed under high vacuum by rotary evaporation. […] The lipid/detergent solution was split into 5 mL aliquots and stored at −80° C.

Experiment [4] deals with human venous whole blood (IFN-γ). Nature of the experiment: Human whole blood IFN-γ assay. Conditions: whole blood, normalized to 3 μM reference compound as 100% activation, read-out: IFN-γ Whole Blood Normalized EC50. The class given is cell-based. On the procedure: Human venous whole blood (22.5 μL per well), obtained from healthy donors, was pre-treated with compounds for one hour at 37° C. in a humidified 95% air/5% CO2 incubator. The blood was stimulated with 2.5 μL anti-human CD3 and anti-CD28 mAb at a final concentration of 1 μg/mL each for 24 hours at 37° C. IFN-γ in the supernatants was measured using AlphLISA kit (Cat #AL217).

The subject of experiment [5] is whole blood (pERK). Kind of experiment: pERK Whole Blood assay (Table A; no whole-blood pERK method described). In kind it is cell-based. Conditions: normalized.

pEC50, pIC50: −log10 of the molar value. Like-named read-outs stand apart in the source and are kept apart here.

T1 sequence (P23743 whole entry, looked up): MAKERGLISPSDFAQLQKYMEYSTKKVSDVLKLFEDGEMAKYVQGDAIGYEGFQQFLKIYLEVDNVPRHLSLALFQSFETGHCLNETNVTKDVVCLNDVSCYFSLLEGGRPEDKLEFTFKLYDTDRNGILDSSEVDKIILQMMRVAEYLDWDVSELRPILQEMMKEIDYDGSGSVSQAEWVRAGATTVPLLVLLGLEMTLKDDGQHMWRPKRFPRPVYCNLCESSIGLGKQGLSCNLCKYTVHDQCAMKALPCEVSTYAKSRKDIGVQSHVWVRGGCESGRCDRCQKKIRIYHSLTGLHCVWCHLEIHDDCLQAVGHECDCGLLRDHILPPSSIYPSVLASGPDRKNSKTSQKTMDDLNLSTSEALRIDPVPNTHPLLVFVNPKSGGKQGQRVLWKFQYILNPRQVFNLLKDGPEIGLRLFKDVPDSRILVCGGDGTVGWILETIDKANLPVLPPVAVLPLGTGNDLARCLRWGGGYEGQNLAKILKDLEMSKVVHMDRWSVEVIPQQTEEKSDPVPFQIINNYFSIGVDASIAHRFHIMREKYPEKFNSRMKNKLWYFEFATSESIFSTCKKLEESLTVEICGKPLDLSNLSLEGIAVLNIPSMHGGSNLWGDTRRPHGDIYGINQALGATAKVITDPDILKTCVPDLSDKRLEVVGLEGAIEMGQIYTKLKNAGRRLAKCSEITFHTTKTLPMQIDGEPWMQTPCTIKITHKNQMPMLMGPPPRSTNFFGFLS
Sequence of human DGKζ (Q13574 other isoform, or with tags, fused parts or gaps): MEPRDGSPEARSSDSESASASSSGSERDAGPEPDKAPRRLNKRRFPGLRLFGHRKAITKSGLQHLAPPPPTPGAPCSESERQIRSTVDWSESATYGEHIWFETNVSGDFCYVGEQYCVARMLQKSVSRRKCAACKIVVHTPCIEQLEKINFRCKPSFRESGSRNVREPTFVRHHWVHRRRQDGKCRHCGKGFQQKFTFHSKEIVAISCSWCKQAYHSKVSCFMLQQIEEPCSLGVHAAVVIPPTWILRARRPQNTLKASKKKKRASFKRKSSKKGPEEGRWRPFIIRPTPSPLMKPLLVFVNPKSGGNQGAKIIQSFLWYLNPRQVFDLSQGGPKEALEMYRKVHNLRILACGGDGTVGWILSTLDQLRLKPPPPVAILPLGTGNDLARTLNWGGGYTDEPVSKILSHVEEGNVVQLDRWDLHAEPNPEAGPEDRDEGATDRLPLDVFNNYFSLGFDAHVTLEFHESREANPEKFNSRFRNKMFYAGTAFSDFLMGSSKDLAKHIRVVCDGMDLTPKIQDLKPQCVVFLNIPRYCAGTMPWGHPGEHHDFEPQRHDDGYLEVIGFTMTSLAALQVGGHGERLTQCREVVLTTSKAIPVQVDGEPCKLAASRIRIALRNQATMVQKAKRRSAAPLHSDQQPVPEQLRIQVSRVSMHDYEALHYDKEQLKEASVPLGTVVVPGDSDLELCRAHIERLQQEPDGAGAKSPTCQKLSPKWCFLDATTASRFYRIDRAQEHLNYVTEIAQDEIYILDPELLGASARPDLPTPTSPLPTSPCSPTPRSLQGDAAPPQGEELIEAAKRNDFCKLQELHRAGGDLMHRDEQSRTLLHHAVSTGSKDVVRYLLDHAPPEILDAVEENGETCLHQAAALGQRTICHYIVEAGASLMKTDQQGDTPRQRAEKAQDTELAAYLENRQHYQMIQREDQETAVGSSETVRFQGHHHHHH

In the case of `CC[C@@H]1CN(c2nc(=O)n(C)c3ccc(C#N)nc23)[C@@H](C)CN1C(c1ccc(F)cc1)c1ccc(C(F)(F)F)nc1` (single isomer, unassigned) [Example 98], the pIC50 in experiment [1] was 6.51; in experiment [2] it was 7.26; in experiment [3], 7.59; in experiment [5], 6.85. Besides, the pEC50 in experiment [4] was 7.06.

With `CC[C@H]1CN(C(C)c2ccc(C(F)(F)F)cc2F)[C@H](CC)CN1c1nc(=O)n(C)c2ccc(C#N)nc12` (single isomer, unassigned) [Example 26], the pIC50 in experiment [1] is 7.09; in experiment [2] it was 6.68; in experiment [3], 7.54; in experiment [5], 6.62. Further, the pEC50 in experiment [4] is 6.74.

For the molecule `CC[C@@H]1CN(c2nc(=O)n(C)c3ccc(C#N)nc23)[C@@H](C)CN1C(C)c1ccc(OC(F)(F)F)cc1` (single isomer, unassigned) [Example 48], the pIC50 was 7.80 in experiment [1], 7.32 in experiment [2] and 7.60 in experiment [5]. In addition, in experiment [4], the pEC50 was 7.74.

Turning to `CCC(c1ccc(OC(F)(F)F)cc1F)N1C[C@H](C)N(c2nc(=O)n(C)c3ccc(C#N)nc23)C[C@H]1C` (single isomer, unassigned) [Example 152], the pIC50 was 7.54 in experiment [1], 7.04 in experiment [2] and 6.96 in experiment [5]. The pEC50 in experiment [4] was 6.70.

For `CC[C@H]1CN(C(c2ccc(F)cc2)c2ccc(C(F)(F)F)cn2)[C@H](C)CN1c1nc(=O)n(C)c2ccc(C#N)nc12` (stereo partly drawn) [Example 115, 4-((2S,5R)-2-ethyl-4-((4-fluorophenyl)(5-(trifluoromethyl)pyridin-2-yl)methyl)-5-methylpiperazin-1-yl)-1-methyl-2-oxo-1,2-dihydropyrido[3,2-d]pyrimidine-6-carbonitrile], the pIC50 in experiment [1] is 6.80; in experiment [2], 5.61; in experiment [5], 6.28. In addition, the pEC50 in experiment [4] was 6.64.

As for `CCC(c1ccc(OC(F)(F)F)cc1F)N1C[C@H](CC)N(c2nc(=O)n(C)c3ccc(C#N)nc23)C[C@H]1CC` (single isomer, unassigned) [Example 12], the pIC50 in experiment [1] is 6.39; in experiment [2], 6.22; in experiment [5], 6.22. For the same molecule, the pEC50 in experiment [4] (Homo sapiens) is 5.38.

Take `CC(c1ccc(C(F)(F)F)cc1F)N1C[C@H](C)N(c2nc(=O)n(C)c3ccc(C#N)nc23)C[C@H]1C` (single isomer, unassigned) [Example 150]: the negative logarithm of the IC50 (pIC50) in experiment [1] was 6.46; in experiment [2], 6.70; in experiment [5], 6.85. For the same molecule, in experiment [4] (Homo sapiens), the pEC50 was 6.32.

As to `CC[C@H]1CN(C(C)c2ccc(C3CC3)cc2)[C@H](CC)CN1c1nc(=O)n(C)c2ccc(C#N)nc12` (single isomer, unassigned) [Example 29], the results for the pIC50 in experiment [1], in experiment [2] and in experiment [5] were 7.40, 8.00 and 7.00, respectively. Further, the pEC50 in experiment [4] is 7.57.

Regarding `CC(c1ccc(Cl)cc1F)N1C[C@H](C)N(c2nc(=O)n(C)c3ccc(C#N)nc23)C[C@H]1C` (single isomer, unassigned) [Example 146], the results for the pIC50 in experiment [1], in experiment [2] and in experiment [5] were 7.33, 7.36 and 6.60, respectively. Further, the pEC50 in experiment [4] (Homo sapiens) was 6.15.

Consider `CC[C@H]1CN(C(C)c2ccc(OC(F)(F)F)c(F)c2)[C@H](CC)CN1c1nc(=O)n(C)c2ccc(C#N)nc12` (single isomer, unassigned) [Example 30], for which the figures for the negative-log IC50 (pIC50) in experiment [1], in experiment [2] and in experiment [5] were 7.12, 8.40 and 7.23, respectively. Besides, the pEC50 in experiment [4] is 7.64.

For `CC[C@@H]1CN(c2nc(=O)n(C)c3ccc(C#N)nc23)[C@@H](C)CN1C(c1ccc(F)cc1)c1ccon1` (single isomer, unassigned) [Example 73], the pIC50 in experiment [1] is 7.54; in experiment [2], 6.85; in experiment [5], 7.10. For the same molecule, the pEC50 in experiment [4] was 7.66.

As for `CC[C@H]1CN(C(c2ccc(F)cc2)c2nc(C3CC3)nn2C)[C@H](CC)CN1c1nc(=O)n(C)c2ccc(C#N)nc12` (single isomer, unassigned) [Example 294], the values for the pIC50 in experiment [1], in experiment [2] and in experiment [5] were 5.08, 7.38 and 6.70, respectively. Further, the pEC50 in experiment [4] (Homo sapiens) was 6.18.

`CC(c1ccc(OC(F)(F)F)c(F)c1)N1C[C@H](C)N(c2nc(=O)n(C)c3ccc(C#N)nc23)C[C@H]1C` (single isomer, unassigned) [Example 160]: the pIC50 in experiment [1] was 6.96; in experiment [2], 6.60; in experiment [5], 6.07. For the same molecule, the pEC50 in experiment [4] was 6.62.

As to `CC[C@H]1CN(C(C)c2ccc(C(F)(F)F)cc2)[C@H](C)CN1c1nc(=O)n(C)c2ccc(C#N)nc12` (stereo partly drawn) [Example 117, 4-((2S,5R)-2-ethyl-5-methyl-4-(1-(4-(trifluoromethyl)phenyl)ethyl)piperazin-1-yl)-1-methyl-2-oxo-1,2-dihydropyrido[3,2-d]pyrimidine-6-carbonitrile], the pIC50 in experiment [1] was 8.70; in experiment [2], 8.70; in experiment [5] it was 6.11. Further, the pEC50 in experiment [4] is 6.80.

Consider `C[C@@H]1CN(c2nc(=O)n(C)c3ccc(C#N)nc23)[C@@H](C)CN1C(c1ccc(F)cc1)c1nc(C(C)(C)C)no1` (single isomer, unassigned) [Example 109], for which the pIC50 in experiment [1] is 7.47; in experiment [2] it was 6.72; in experiment [5] it was 7.32. Moreover, the pEC50 in experiment [4] was 6.96.

For the molecule `CC[C@H]1CN(C(c2ccc(F)cc2)c2ccc(C(F)(F)F)cn2)[C@H](CC)CN1c1nc(=O)n(C)c2ccc(C#N)nc12` (single isomer, unassigned) [Example 2], the pIC50 was 7.49 in experiment [1], 7.33 in experiment [2] and 6.82 in experiment [5]. Further, in experiment [4], the pEC50 is 7.12.

Turning to `CC[C@H]1CN(C(C)c2ccc(OC(F)(F)F)cc2F)[C@H](CC)CN1c1nc(=O)n(C)c2ccc(C#N)nc12` (single isomer, unassigned) [Example 38], the pIC50 in experiment [1] was 7.18; in experiment [2], 6.92; in experiment [5], 6.66. The negative logarithm of the EC50 (pEC50) in experiment [4] was 7.14.

As to `CC[C@@H]1CN(c2nc(=O)n(C)c3ccc(C#N)nc23)[C@@H](C)CN1C(c1ccc(F)cc1)c1nc(C2CC2)cs1` (single isomer, unassigned) [Example 51], the pIC50 is 7.43 in experiment [1], 7.57 in experiment [2] and 8.05 in experiment [5]. Besides, the pEC50 in experiment [4] (Homo sapiens) is 8.22.

Turning to `CC(c1ccc(OC(F)F)cc1)N1C[C@H](C)N(c2nc(=O)n(C)c3ccc(C#N)nc23)C[C@H]1C` (single isomer, unassigned) [Example 157], the pIC50 in experiment [1] was 6.48; in experiment [2], 5.86; in experiment [5], 5.36. In experiment [4] (Homo sapiens), the pEC50 was 5.85.

With `CC[C@@H]1CN(c2nc(=O)n(C)c3ccc(C#N)nc23)[C@@H](C)CN1Cc1ccc(OC(F)(F)F)cc1` [Example 54, 4-((2S,5R)-5-ethyl-2-methyl-4-(4-(trifluoromethoxy)benzyl)piperazin-1-yl)-1-methyl-2-oxo-1,2-dihydropyrido[3,2-d]pyrimidine-6-carbonitrile], the pIC50 in experiment [1] is 6.62; in experiment [2], 6.46; in experiment [5], 6.04. Moreover, the pEC50 in experiment [4] (Homo sapiens) was 6.51.

As for `CC(c1ccc(F)cc1F)N1C[C@H](C)N(c2nc(=O)n(C)c3ccc(C#N)nc23)C[C@H]1C` (single isomer, unassigned) [Example 145], the values for the pIC50 in experiment [1], in experiment [2] and in experiment [5] were 5.95, 5.72 and 6.12, respectively. Further, the pEC50 in experiment [4] (Homo sapiens) was 4.70.

For `CC[C@H]1CN(C(c2ccc(F)cc2)c2ccc(C(F)(F)F)cn2)[C@H](CC)CN1c1nc(=O)n(C)c2ccc(C#N)nc12` (single isomer, unassigned) [Example 1], the pIC50 in experiment [1] is 7.80; in experiment [2], 7.44; in experiment [5], 5.98. Further, the pEC50 in experiment [4] is 7.57.

In the case of `CC[C@H]1CN(C(C)c2ccc(C(C)(C)C#N)cc2)[C@H](CC)CN1c1nc(=O)n(C)c2ccc(C#N)nc12` (stereo partly drawn) [Example 196, 4-((2S,5R)-4-(1-(4-(2-cyanopropan-2-yl)phenyl)ethyl)-2,5-diethylpiperazin-1-yl)-1-methyl-2-oxo-1,2-dihydropyrido[3,2-d]pyrimidine-6-carbonitrile], the negative logarithm of the IC50 (pIC50) was 6.92 in experiment [1], 7.92 in experiment [2] and 7.31 in experiment [5]. Further, the pEC50 in experiment [4] was 7.51.

As for `CC[C@@H]1CN(c2nc(=O)n(C)c3ccc(C#N)nc23)[C@@H](C)CN1C(c1ccc(F)cc1)c1cc(C2CC2)on1` (single isomer, unassigned) [Example 101], the pIC50 in experiment [1] was 6.85; in experiment [2], 7.18; in experiment [5] it was 6.60. The pEC50 in experiment [4] (Homo sapiens) was 7.00.

Take `CC(c1ccc(OC(F)(F)F)cc1F)N1C[C@H](C)N(c2nc(=O)n(C)c3ccc(C#N)nc23)C[C@H]1C` (single isomer, unassigned) [Example 142]: the pIC50 in experiment [1] was 7.28; in experiment [2], 6.64; in experiment [5], 7.00. Further, in experiment [4] (Homo sapiens), the pEC50 was 5.44.
